From patent US20230391838A1 (priority 2020, published 2023)
*1 amine or outer side, *2 acyl side, *3 side chain or, on linkers, in order; H or OH if unused. Where a SMILES comes first, the peptide text is derived from it. Bridges are numbered along the chain shown (N, C = ends). [ ]: non-standard residue; d: D form. Tyr(3-I) = N[C@@H](Cc1ccc(O)c(I)c1)C(=O)O; β3hY = N[C@H](CC(=O)O)Cc1ccc(O)cc1; CH2 = C([*:1])[*:2]

Conditions: pH 7.4

C[C@@H](O)[C@@H]1NC(=O)[C@@H]2CSCSC[C@@H](C(=O)N[C@H](CC(=O)N[C@@H](CCCNC(=N)N)C(=O)O)Cc3ccc(O)cc3)NC(=O)[C@H](CCC(N)=O)NC(=O)[C@H](Cc3ccc(O)c(I)c3)NC(=O)[C@H](CCCNC(=N)N)NC(=O)[C@H](CSSC[C@H](NC(=O)CN)C(=O)N2)NC(=O)[C@H](CCCNC(=N)N)NC(=O)[C@@H]2CCCN2C(=O)[C@H](CC(=O)O)NC1=O [RgIA-5524, G C^I C^II T D P R C^III R (iY) Q C^IV (bhY) R] (H-GCCTDPRCR[Tyr(3-I)]QC[β3hY]R-OH; disulfide 2-8; linker 3-12 via CH2)
disulfide scrambling in presence of reduced glutathione (in words): largely suppress disulfide scrambling
